Data set [1] has as its target GLP-1R (Homo sapiens, UniProt P43220). Briefly: GLP-1R activation: cAMP increase in CHO cells stably expressing GLP-1R. The format is cell-based.
Data set [2] can be described thus: Microsomal stability, human liver microsomes (predicted hepatic clearance). The conditions noted are these: predicted from in vitro microsomal stability data.
[3] abbreviates: cAMP increase, CHO cells stably expressing GLP-1R, 10 point dose response, 30 minutes incubation, read-out: EC50.

The text below walks through data of patent US11702404B2, “GLP-1R modulating compounds” (priority 2019, dated 2023).

Read-outs that look alike come from different tables or passages of the source.

Chain of GLP-1R (P43220 24-463): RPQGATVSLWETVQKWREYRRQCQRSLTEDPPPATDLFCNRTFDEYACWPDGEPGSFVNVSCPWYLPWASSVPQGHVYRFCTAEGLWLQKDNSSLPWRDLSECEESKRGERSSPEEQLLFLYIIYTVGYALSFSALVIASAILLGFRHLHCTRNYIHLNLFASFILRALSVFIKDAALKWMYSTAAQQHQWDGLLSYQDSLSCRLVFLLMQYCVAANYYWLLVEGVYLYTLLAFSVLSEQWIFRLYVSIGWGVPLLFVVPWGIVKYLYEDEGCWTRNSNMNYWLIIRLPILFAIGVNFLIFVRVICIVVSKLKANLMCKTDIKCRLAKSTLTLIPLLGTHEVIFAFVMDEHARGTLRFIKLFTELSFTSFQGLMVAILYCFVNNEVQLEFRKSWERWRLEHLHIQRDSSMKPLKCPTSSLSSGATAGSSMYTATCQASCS

In the case of `N#Cc1ccc(COc2cccc(-c3ccc(Cc4nc5ccc(C(=O)O)cc5n4Cc4ccccc4)c(F)c3)n2)c(F)c1` [Example 531, 1-benzyl-2-(4-(6-((4-cyano-2-fluorobenzyl)oxy)pyridin-2-yl)-2-fluorobenzyl)-1H-benzo[d]imidazole-6-carboxylic acid], in data set [1] (setting [3]), the concentration giving a half-maximal response (EC50) is 12.8 nM. In addition, the “Predicted Hepatic Clearance (Pred. Cl.)” value in data set [2] is 2.25 mL/min/kg.
On to `CC(C)(O)[C@H](F)Cn1c(Cc2ccc(-c3cccc(OCc4ccc(C#N)cc4F)n3)cc2F)nc2ccc(C(=O)O)cc21` [Example 278, (R)-2-(4-(6-((4-cyano-2-fluorobenzyl)oxy)pyridin-2-yl)-2-fluorobenzyl)-1-(2-fluoro-3-hydroxy-3-methylbutyl)-1H-benzo[d]imidazole-6-carboxylic acid], for which the half-maximal effective concentration (EC50) in data set [1] (setting [3]) was 1640 nM. The “Predicted Hepatic Clearance (Pred. Cl.)” value in data set [2] is 3 mL/min/kg.
Turning to `COc1cc(Cl)ccc1COc1cccc(-c2ccc(Cc3nc4ccc(C(=O)O)cc4n3CC3(CC#N)CC3)cc2F)n1` [Example 74, 2-(4-(6-((4-chloro-2-methoxybenzyl)oxy)pyridin-2-yl)-3-fluorobenzyl)-1-((1-(cyanomethyl)cyclopropyl)methyl)-1H-benzo[d]imidazole-6-carboxylic acid], the EC50 in data set [1] (setting [3]) came out at 0.46 nM. The “Predicted Hepatic Clearance (Pred. Cl.)” value in data set [2] is 13.2 mL/min/kg.
Regarding `Cc1csc(NCCn2c(Cc3cc(F)c(-c4ccnc(OCc5ccc(C#N)cc5F)n4)cc3F)nc3ccc(C(=O)O)cc32)n1` [Example 832], the EC50 in data set [1] (read-out: EC50) is 2330 nM. Moreover, the “Predicted Hepatic Clearance (Pred. Cl.)” value in data set [2] was 14.3 mL/min/kg.
For the compound `COCCn1c(Cc2c(F)cc(-c3cccc(OCc4ccc(C#N)cc4F)n3)cc2C#N)nc2ccc(C(=O)O)cc21` [Example 537, 2-(2-cyano-4-(6-((4-cyano-2-fluorobenzyl)oxy)pyridin-2-yl)-6-fluorobenzyl)-1-(2-methoxyethyl)-1H-benzo[d]imidazole-6-carboxylic acid], the EC50 in data set [1] (EC50 (nM)) came to 6.89 nM. Moreover, the “Predicted Hepatic Clearance (Pred. Cl.)” value in data set [2] is 3.3 mL/min/kg.
As for `COCCn1c(Cc2ccc(-c3cccc(OCc4cccnc4OC)n3)cc2F)nc2ccc(C(=O)O)cc21` [Example 511, 2-(2-fluoro-4-(6-((2-methoxypyridin-3-yl)methoxy)pyridin-2-yl)benzyl)-1-(2-methoxyethyl)-1H-benzo[d]imidazole-6-carboxylic acid], in data set [1] (setting [3]), the EC50 came to 29.7 nM. Moreover, in data set [2], the “Predicted Hepatic Clearance (Pred. Cl.)” value is 18.7 mL/min/kg.
With `COCCn1c(Cc2ccc(-c3cccc(NC(=O)c4ccccc4)n3)cc2F)nc2ccc(C(=O)O)cc21` [Example 116, 2-(4-(6-benzamidopyridin-2-yl)-2-fluorobenzyl)-1-(2-methoxyethyl)-1H-benzo[d]imidazole-6-carboxylic acid], the EC50 in data set [1] (setting [3]) was found to be 2520 nM. The “Predicted Hepatic Clearance (Pred. Cl.)” value in data set [2] was 7.33 mL/min/kg.
On to `CO[C@H](C)Cn1c(Cc2cc(F)c(-c3cccc(OCc4ccc(C#N)cc4F)n3)cc2F)nc2ccc(C(=O)O)cc21` [Example 588, (R)-2-(4-(6-((4-cyano-2-fluorobenzyl)oxy)pyridin-2-yl)-2,5-difluorobenzyl)-1-(2-methoxypropyl)-1H-benzo[d]imidazole-6-carboxylic acid], for which the EC50 in data set [1] (setting [3]) is 1.33 nM. Besides, the “Predicted Hepatic Clearance (Pred. Cl.)” value in data set [2] was 6.5 mL/min/kg.
`COCCn1c(Cc2ccc(-c3cccc(OCc4ccc(C#N)c5ccccc45)n3)cc2F)nc2ccc(C(=O)O)cc21` [Example 357, 2-(4-(6-((4-cyanonaphthalen-1-yl)methoxy)pyridin-2-yl)-2-fluorobenzyl)-1-(2-methoxyethyl)-1H-benzo[d]imidazole-6-carboxylic acid]: in data set [1] (setting [3]), the EC50 was found to be 56.2 nM. The “Predicted Hepatic Clearance (Pred. Cl.)” value in data set [2] is below 1.83 mL/min/kg.
As for `N#Cc1ccc(COc2cccc(-c3cc(F)c(Cc4nc5ccc(C(=O)O)cc5n4Cc4ccc[nH]c4=O)cc3F)n2)c(F)c1` [Example 312, 2-(4-(6-((4-cyano-2-fluorobenzyl)oxy)pyridin-2-yl)-2,5-difluorobenzyl)-1-((2-oxo-1,2-dihydropyridin-3-yl)methyl)-1H-benzo[d]imidazole-6-carboxylic acid], the EC50 in data set [1] (setting [3]) turned out to be 250 nM. The “Predicted Hepatic Clearance (Pred. Cl.)” value in data set [2] is 4.67 mL/min/kg.
As for `CC(C)(C)OCCn1c(Cc2cc(F)c(-c3cccc(OCc4ccc(C#N)cc4F)n3)cc2F)nc2ccc(C(=O)O)cc21` [Example 893, 1-(2-(tert-butoxy)ethyl)-2-(4-(6-((4-cyano-2-fluorobenzyl)oxy)pyridin-2-yl)-2,5-difluorobenzyl)-1H-benzo[d]imidazole-6-carboxylic acid], the EC50 in data set [1] (EC50 (nM)) turned out to be 35.3 nM. Also, the “Predicted Hepatic Clearance (Pred. Cl.)” value in data set [2] is 1.83 mL/min/kg.
In the case of `COCCn1c(Cc2cc(F)c(-c3cccc(OCc4ccc(C)cn4)n3)cc2F)nc2ccc(C(=O)O)cc21` [Example 803], in data set [1] (setting [3]), the EC50 was 5.95 nM. Moreover, in data set [2], the “Predicted Hepatic Clearance (Pred. Cl.)” value is 13.3 mL/min/kg.
The like results for `COCCn1c(Cc2ccc(-c3cccc(OCc4ccc(C#CC5CC5)cc4F)n3)cc2F)nc2ccc(C(=O)O)cc21` [Example 843] were, in that order, 17.2 nM and 2.67 mL/min/kg.
`O=C(O)c1ccc2nc(Cc3ccc(-c4ccnc(OCc5ccc(C(F)(F)F)cc5F)n4)c(F)c3)n(C[C@@H]3CCO3)c2c1` [Example 788]: the EC50 in data set [1] (setting [3]) came out at 0.17 nM. For the same compound, the “Predicted Hepatic Clearance (Pred. Cl.)” value in data set [2] was 5.5 mL/min/kg.
Take `CC(C#N)Cn1c(Cc2cc(F)c(-c3cccc(OCc4ccc(C#N)cc4F)n3)cc2F)nc2ccc(C(=O)O)cc21` (racemic) [Example 306, 2-(4-(6-((4-cyano-2-fluorobenzyl)oxy)pyridin-2-yl)-2,5-difluorobenzyl)-1-(2-cyanopropyl)-1H-benzo[d]imidazole-6-carboxylic acid]: the EC50 in data set [1] (setting [3]) worked out at 1.86 nM. Moreover, the “Predicted Hepatic Clearance (Pred. Cl.)” value in data set [2] was 6 mL/min/kg.
The like results for `CO[C@@H](C)Cn1c(Cc2ccc(-c3cccc(OCc4ccc(C#N)cc4F)n3)cc2F)nc2ccc(C(=O)O)cc21` [Example 331, (S)-2-(4-(6-((4-cyano-2-fluorobenzyl)oxy)pyridin-2-yl)-2-fluorobenzyl)-1-(2-methoxypropyl)-1H-benzo[d]imidazole-6-carboxylic acid] were, in that order, 12.3 nM and 4 mL/min/kg.
Regarding `CC(C)(CF)Cn1c(Cc2ccc(-c3cccc(OCc4ccc(C#N)cc4F)n3)cc2F)nc2ccc(C(=O)NS(=O)(=O)C3CC3)cc21` [Example 51, 2-(4-(6-((4-cyano-2-fluorobenzyl)oxy)pyridin-2-yl)-2-fluorobenzyl)-N-(cyclopropylsulfonyl)-1-(3-fluoro-2,2-dimethylpropyl)-1H-benzo[d]imidazole-6-carboxamide], in data set [1] (setting [3]), the EC50 is 63 nM. In data set [2], the “Predicted Hepatic Clearance (Pred. Cl.)” value was below 1.83 mL/min/kg.
For `COC[C@@H](c1ccccc1)n1c(Cc2cc(F)c(-c3cccc(OCc4ccc(C#N)cc4F)n3)cc2F)nc2ccc(C(=O)O)cc21` [Example 716], in that order: 2740 nM and 2.17 mL/min/kg.
For `N#Cc1cc(F)c(COc2cccc(-c3cc(F)c(Cc4nc5ccc(C(=O)O)cc5n4C[C@@H]4CCO4)c(F)c3)n2)cc1F` [Example 680], in that order: 0.11 nM and 5.5 mL/min/kg.
Consider `COCCn1c(Cc2ccc(-c3cccc(OCc4ccc(C#N)cc4F)n3)cc2CO)nc2ccc(C(=O)O)cc21` [Example 425, 2-(4-(6-((4-cyano-2-fluorobenzyl)oxy)pyiridn-2-yl)-2-(hydroxymethyl)benzyl)-1-(2-methoxyethyl)-1H-benzo[d]imidazole-6-carboxylic acid], for which the EC50 in data set [1] (setting [3]) was found to be 4.29 nM. For the same compound, the “Predicted Hepatic Clearance (Pred. Cl.)” value in data set [2] is 6.7 mL/min/kg.
As to `COC(CN)Cn1c(Cc2ccc(-c3cccc(OCc4ccc(C#N)cc4F)n3)cc2F)nc2ccc(C(=O)O)cc21` (single isomer, unassigned) [Example 339, 1-(3-amino-2-methoxypropyl)-2-(4-(6-((4-cyano-2-fluorobenzyl)oxy)pyridin-2-yl)-2-fluorobenzyl)-1H-benzo[d]imidazole-6-carboxylic acid], the EC50 in data set [1] (setting [3]) turned out to be 566 nM. For the same compound, the “Predicted Hepatic Clearance (Pred. Cl.)” value in data set [2] was below 1.83 mL/min/kg.
Turning to `N#Cc1ccc(COc2nccc(-c3ccc(Cc4nc5c(F)cc(C(=O)O)cc5n4C[C@@H]4CCO4)cc3F)n2)c(F)c1` [Example 369, (S)-2-(4-(2-((4-cyano-2-fluorobenzyl)oxy)pyrimidin-4-yl)-3-fluorobenzyl)-4-fluoro-1-(oxetan-2-ylmethyl)-1H-benzo[d]imidazole-6-carboxylic acid], the EC50 in data set [1] (setting [3]) was 0.13 nM. In data set [2], the “Predicted Hepatic Clearance (Pred. Cl.)” value is 4.33 mL/min/kg.
Take `N#Cc1ccc(COc2cccc(-c3cc(F)c(Cc4nc5ccc(C(=O)O)cc5n4[C@@H]4C[C@H]4C(F)F)cc3F)n2)c(F)c1` [Example 720]: the EC50 in data set [1] (setting [3]) worked out at 27.8 nM. Further, the “Predicted Hepatic Clearance (Pred. Cl.)” value in data set [2] was 5.33 mL/min/kg.
For the compound `CC(=O)N1C[C@H](O)C[C@@H]1Cn1c(Cc2cc(F)c(-c3cccc(OCc4ccc(C#N)cc4F)n3)cc2F)nc2ccc(C(=O)O)cc21` [Example 848], the EC50 in data set [1] (setting [3]) worked out at 4.08 nM. Moreover, the “Predicted Hepatic Clearance (Pred. Cl.)” value in data set [2] is 2.83 mL/min/kg.
For `COCCn1c(Cc2c(F)cc(-c3csnc3OCc3ccc(C#N)cc3F)cc2F)nc2ccc(C(=O)O)cc21` [Example 76, 2-(4-(3-((4-cyano-2-fluorobenzyl)oxy)isothiazol-4-yl)-2,6-difluorobenzyl)-1-(2-methoxyethyl)-1H-benzo[d]imidazole-6-carboxylic acid], in data set [1] (setting [3]), the EC50 was determined as 22.3 nM. Also, the “Predicted Hepatic Clearance (Pred. Cl.)” value in data set [2] is 13.4 mL/min/kg.
Take `COCCn1c(Cc2ccc(-c3cccc(OCc4cccc(S(C)(=O)=O)c4)n3)cc2F)nc2ccc(C(=O)O)cc21` [Example 495, 2-(2-fluoro-4-(6-((3-(methylsulfonyl)benzyl)oxy)pyridin-2-yl)benzyl)-1-(2-methoxyethyl)-1H-benzo[d]imidazole-6-carboxylic acid]: the half-maximal effective concentration (EC50) in data set [1] (setting [3]) turned out to be 777 nM. Besides, the “Predicted Hepatic Clearance (Pred. Cl.)” value in data set [2] is 5.83 mL/min/kg.
